These results are taken from publication PMC10482691, “LTP induction by structural rather than enzymatic functions of CaMKII” (Nature, 2023).

The target in this test is T1, CaMKII-F89G binding to GST-GluN2B-c (Homo sapiens, UniProt Q9UQM7, F89G).
T1 construct: made in house; host or cells: HEK293 overexpression (CaMKII mutant); BL21 bacteria (CaM, GST-GluN2Bc)
Nature of the test: CaMKII-F89G binding to immobilized GST-GluN2B-c in vitro. The method, then: CaMKII–GluN2B binding assays were done as described[9],[13],[25]. Briefly, GST–GluN2B-c tail (GST–2BC) was immobilized on anti-GST antibody-coated microtiter plates (Thermo Scientific), blocked for 30 min with 5% BSA and then overlaid with […] CaMKII (subunit concentration) in PIPES-buffered saline (pH 7.2) containing 2 mM Ca^2+, 1 μM CaM, 1 mM Mg^2+, 0.1% BSA and 0.1% Tween-20 for 20 min at room temperature. The addition of 1 mM ADP, 1 mM ATP, 10 μM AS283 (or AS105) or 10 μM NM-PP1 was added accordingly (Figs. 1–6). After extensive washes in buffer containing 1 mM EGTA, GST–2BC and bound CaMKII were eluted for 10 min in SDS loading buffer at 95 °C. Bound CaMKII was measured via immunoblot.
Extended Data Fig. 4 CaMKII WT and K42M are unaffected by NM-PP1 in HEK cells. Data are presented as mean values +/− SEM. a, Representative immunoblot and quantification of in vitro kinase reactions at 30 °C in 1 mM ATP measuring CaMKIIα WT and F89G phosphorylation of T286 (n = 4 independent samples, **p < 0.01, ***p < 0.001; two-way ANOVA with Šídák’s multiple comparisons test). WT) –:ATP p = 0.0012; –:ATP+NM-PP1 p = 0.0002; ATP:ATP+NM-PP1 p = 0.7989. […] Scale bar indicates 10 μm. n = 22, 17 cells; see Fig. 4c for quantification. c, Binding of CaMKII-F89G to immobilized GST-GluN2B-c was induced by Ca^2+/CaM in the presence of either 1 mM ADP or 10 μM NM-PP1. […]

Where “and” joins values, the source holds several entries; their conditions need not be identical. Equal entries are not always repeated.

T1 sequence (Q9UQM7 whole entry F89G): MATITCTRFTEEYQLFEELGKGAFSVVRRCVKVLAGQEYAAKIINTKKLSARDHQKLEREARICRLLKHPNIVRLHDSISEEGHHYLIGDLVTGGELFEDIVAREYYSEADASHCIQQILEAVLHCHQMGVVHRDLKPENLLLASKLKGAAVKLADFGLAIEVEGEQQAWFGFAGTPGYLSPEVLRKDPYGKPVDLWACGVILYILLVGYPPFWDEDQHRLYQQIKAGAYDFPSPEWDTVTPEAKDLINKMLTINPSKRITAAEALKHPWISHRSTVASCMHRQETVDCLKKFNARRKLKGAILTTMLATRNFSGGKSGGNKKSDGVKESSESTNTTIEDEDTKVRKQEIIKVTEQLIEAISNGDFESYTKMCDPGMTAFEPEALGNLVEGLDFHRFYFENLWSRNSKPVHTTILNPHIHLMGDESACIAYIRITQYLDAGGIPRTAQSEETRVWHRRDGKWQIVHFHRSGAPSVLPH
T1 sequence (Q13224 836-1484, further chain): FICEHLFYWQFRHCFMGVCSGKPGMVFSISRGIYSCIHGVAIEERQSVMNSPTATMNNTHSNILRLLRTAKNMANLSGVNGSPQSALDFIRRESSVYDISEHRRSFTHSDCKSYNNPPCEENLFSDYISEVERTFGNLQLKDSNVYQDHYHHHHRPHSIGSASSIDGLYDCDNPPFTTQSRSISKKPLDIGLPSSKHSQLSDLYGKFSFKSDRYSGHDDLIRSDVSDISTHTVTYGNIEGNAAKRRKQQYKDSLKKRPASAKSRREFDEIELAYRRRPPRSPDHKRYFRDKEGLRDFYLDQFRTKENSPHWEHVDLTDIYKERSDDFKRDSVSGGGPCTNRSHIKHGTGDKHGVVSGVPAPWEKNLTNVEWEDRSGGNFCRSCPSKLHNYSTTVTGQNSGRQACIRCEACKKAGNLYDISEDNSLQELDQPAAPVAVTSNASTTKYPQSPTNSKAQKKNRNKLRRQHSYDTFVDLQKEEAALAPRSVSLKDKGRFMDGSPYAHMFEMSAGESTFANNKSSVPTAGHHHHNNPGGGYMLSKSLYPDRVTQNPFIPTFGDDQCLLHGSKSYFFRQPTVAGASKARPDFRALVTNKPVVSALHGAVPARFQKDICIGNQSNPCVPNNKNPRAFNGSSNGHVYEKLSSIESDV

`CC(C)(C)n1nc(Cc2cccc3ccccc23)c2c(N)ncnc21` [NM-PP1]: the “bound CaMKII-F89G (immunoblot, relative)” value (Ca2+/CaM, 10 μM NM-PP1) was 3.501 and 3.151 and 3.552 and 3.537. Under “NM-PP1”, the “effect on binding of CaMKII F89G to GluN2B in vitro” value is recorded as “enabled binding”.
